The series can be described thus: Forced stress screen (AIBN, peroxide, 0.1N NaOH). The class given is physicochemical. As to the method: 0.05 mg/mL stock solutions of Compound A were prepared by adding […] of Compound A to a 50 mL volumetric flask and diluted to volume with either 50/50 water/methanol (stock solution A), or 50/50 water/acetonitrile (stock solution B).
An azobisisobutyronitrile (AIBN) stress solution was prepared by dissolving 7.77 mg of AIBN in 10 mL of stock solution A in an amber volumetric flask and sonicating to dissolve. The AIBN control solution was prepared by dissolving 8.48 mg of AIBN in 10 mL of 50/50 methanol/water in an amber volumetric flask. Both solutions were placed in an oven at 40° C. for 24 hours.
A peroxide stress solution was prepared by adding 1.0 mL of 3% hydrogen peroxide to 9.0 mL of stock solution A in a volumetric flask. An aliquot of the solution was placed into an amber vial kept at room temperature, and another aliquot was stored at 5° C. for 24 hours. The peroxide control solution was prepared by adding 1.0 mL of 3% hydrogen peroxide to 9.0 mL 50/50 methanol/water in an amber volumetric flask. This solution was kept at room temperature for 24 hours.
A 0.1N NaOH stress solution was prepared by adding 1.0 mL of 1N sodium hydroxide to 9.0 mL of stock solution B in an amber volumetric flask. One sample was kept at room temperature, and the identical sample was placed in an oven at 60° C. for 24 hours. A 0.1N NaOH control solution was prepared by adding 1.0 mL of 1N sodium hydroxide to 9.0 mL of 50/50 acetonitrile/water in an amber volumetric flask.
No major degradation was observed under AIBN or 0.1N NaOH base stress. […] The percent of Compound A was calculated based on the area count of active peak in the control samples compared to stress samples.

As for `Nc1nc2c(ncn2[C@@H]2O[C@@H]3CO[P@@](=O)(S)O[C@H]4[C@H](F)[C@H](n5cnc6c(N)ncnc65)O[C@@H]4CO[P@@](=O)(S)O[C@@H]2[C@@H]3F)c(=O)[nH]1` (single isomer, unassigned) [Compound A], the “Sensitive for Hydrolysis or Oxidation” value is given as “No sensitivity; <5% drug loss” (0.1 N NaOH base stress, in 0.1 N NaOH after 24h/RT); “No sensitivity; <5% drug loss” (AIBN stress); “High sensitivity; >10% drug loss” (Peroxide stress at 5° C.); “High sensitivity; >10% drug loss” (Peroxide stress at RT). Moreover, the “Sensitivity to two-electron oxidative processes” value (forced stress) was “highly sensitive”.

Source of the values: patent US20220175811A1, “STABLE FORMULATIONS OF CYCLIC DINUCLEOTIDE STING AGONIST COMPOUNDS AND METHODS OF USE THEREOF” (Merck Sharp & Dohme Corp., priority 2019, published 2022).
